Reference: US10377778B2, “Lead and thorium compounds” (Sciencons AS, priority 2017, dated 2019)

Assays:
[1] = Stability testing of ^212Pb-labeled ligands in vitro (TLC radiochemical purity in PBS and FBS); format: physicochemical; details: 37° C.
Experimental: (§1) Thin layer chromatography (TLC) was performed using chromatography strips (model #150-772, Biodex Medical Systems Inc, Shirley, N.Y., USA). A formulation buffer (FB) consisting of 7.5% human serum albumin and 5 mM EDTA in DPBS and adjusted to approximately pH 7 with NaOH was mixed with the antibody conjugates in ratio 2:1 for at least 5 minutes before application to the strips to determine free radionuclide. A small beaker with about 0.5 ml of 0.9% NaCl was used to place strips with a sample spot in. To the strip was typically added 1-4 μl of sample at approximately 10% above the bottom of the strip. After the solvent front had moved to about 20% from the top of the strip, the strip was cut in half and each half was placed in a 5 ml test tube for counting. In this system radiolabeled ligand stays at the bottom half while radionuclide complexed with EDTA migrates to the upper half. It was verified that free cations of both ^212Pb and ^177Lu would complex with EDTA and moved to the top.
TLC analyses were performed at 1 h, 4 h, 24 h and 48 h of incubation. […]

C4-2 cells = assay: Radiolytic stability: cell binding fraction after storage in ^224Ra solution; set-up: species or system human
Experimental: (§2) Initial activity in the solution was about 5 MBq/ml causing an absorbed radiation dose to the solution of about 1.8 Gy after 24 h and 3.3 Gy after 48 hours. The data (Table 2) indicate a slight decline at the longest exposure time but in general a relatively strong radiolytic resistance of the ligand was observed, which is compatible with centralized production and shipment to the end user ^224Ra-based generator solution with or without removal of ^224Ra prior to the administration of product.

[2] = Radiolytic stability: TLC measured RCP when kept in ^224Ra solution; format: physicochemical
Experimental: as §1, §2

[3] = tested on: C4-2 PSMA-positive xenografts; assay: Biodistribution of radiolabelled ligands (^224Ra/^212Pb solutions, ^177Lu) in nude mice with C4-2 xenografts
Experimental: Each group usually consisted of three mice. […] Approximately 16 kBq of ^224Ra/^212Pb was injected in each animal, i.e., approximately 0.2 nmol of ligand per mouse. Animals were given anaesthesia and sacrificed by cervical dislocation followed by dissection and harvesting of tissue-, blood- and urine samples. The samples were weighed and counted on a gamma counter.
Three mice in each group. […] The molar concentration was the same for both products, i.e., 12.5 nmol per MBq. Approximately 16 kBq of ^224Ra/^212Pb was injected in each animal, i.e., approximately 0.2 nmol of ligand per mouse. Animals were given anaesthesia and sacrificed by cervical dislocation followed by dissection and harvesting of tissue-, blood- and urine samples. The samples were weighed and counted on a gamma counter.
Methods: Tumor and kidney uptake of ^212Pb-labeled p-SCN-Bn-TCMC-PSMA ligand 1 and ^177Lu-labeled PSMA-617 was compared at 1 hours and 4 hours after administration of the products by intravenous injection into nude mice with C4-2 xenografts as described in Example 9.

[4] = tested on: C4-2 PSMA positive human prostate cells xenografts; assay: Comparative therapy experiment in nude mice with C4-2 xenografts; format: in vivo; details: 52 MBq ^177Lu-PSMA-617 or 320 kBq ^212Pb-ligand 1
Experimental: Male nude mice were inoculated in the flanks with C4-2 PSMA positive human prostate cells and 2 weeks later when tumors were 5-7 mm in diameters. Groups of 8 animals each received saline, 52 MBq of ^177Lu-PSMA-617 or 320 kBq of ^212Pb-p-SCN-Bn-TCMC-PSMA ligand 1. Animals were sacrificed when tumor size reached 20 mm due to animal welfare requirements. […] For ^212Pb the effective half-life was assumed to be 10.6 h, 10% of injected dose per gram decays in tumor and 100% of radiation in a tumor is absorbed in the tumor, 100% retention of ^212Pb and daughters in the tumors and 8 MeV radiation energy per decay. The tumor dosimetry for the injected activities gave on average 35.9 Gy to tumors for ^177Lu-PSMA-617 and 2.06 Gy to tumors for ^212Pb-p-SCN-Bn-TCMC-PSMA ligand 1 groups respectively.

[5] = 4 h after i.v. injection, ^224Ra/^212Pb solution

Compound: NC(=O)CN1CCN(CC(N)=O)CCN(CC(N)=O)C(Cc2ccc(NC(=S)NCC3CCC(C(=O)NC(Cc4ccc5ccccc5c4)C(=O)NCCCCC(NC(=O)NC(CCC(=O)O)C(=O)O)C(=O)O)CC3)cc2)CN(CC(N)=O)CC1.[212Pb+2] (stereo not drawn) [^212Pb-p-SCN-Bn-TCMC-PSMA ligand 1]
- Radiochemical purity ([1]; FBS, 1 h since start of incubation, in ^224Ra/^212Pb solution): 93.50%
- Radiochemical purity ([1]; FBS, 4 h): 94.18%
- Radiochemical purity ([1]; FBS, 24 h): 93.54%
- Radiochemical purity ([1]; FBS, 48 h): 90.81%
- Radiochemical purity ([1]; PBS, 1 h since start of incubation, in ^224Ra/^212Pb solution): 93.26%
- Radiochemical purity ([1]; PBS, 4 h): 95.04%
- Radiochemical purity ([1]; PBS, 24 h): 95.00%
- Radiochemical purity ([1]; PBS, 48 h): 95.11%
- Cell binding fraction (C4-2 cells; kept in ^224Ra solution 4 h): 52.3%
- Cell binding fraction (C4-2 cells; kept in ^224Ra solution 24 h (about 1.8 Gy)): 48.16%
- Cell binding fraction (C4-2 cells; kept in ^224Ra solution 48 h (about 3.3 Gy)): 37.18%
- TLC measured RCP ([2]; kept in ^224Ra solution 0.5 h): 93.81%
- TLC measured RCP ([2]; kept in ^224Ra solution 1 h): 92.84%
- TLC measured RCP ([2]; kept in ^224Ra solution 4 h): 94.75%
- TLC measured RCP ([2]; kept in ^224Ra solution 24 h): 94.85%
- TLC measured RCP ([2]; kept in ^224Ra solution 48 h): 94.85%
- Average tumor-to-kidney ratio ([3]; 1-hour point after administration): 0.40
- Tumor-to-kidney ratio ([3]; 4-hour timepoint): 1.7
- Uptake ratio to ^212Pb-PSMA-617, blood [3, 5]: 1.21
- Uptake ratio to ^212Pb-PSMA-617, kidneys [3, 5]: 0.20
- Uptake ratio to ^212Pb-PSMA-617, liver [3, 5]: 2.67
- Uptake ratio to ^212Pb-PSMA-617, spleen [3, 5]: 0.71
- Uptake ratio to ^212Pb-PSMA-617, tumor ([3]; 4 h after i.v. injection, ^224Ra/^212Pb solution, about 0.2 nmol ligand per mouse): 1.35
- Kidney uptake (average) ([3]; 4 hours after i.v. injection): 8.1 % ID/g
- Tumor uptake (average) ([3]; 4 hours after i.v. injection): 13.9 % ID/g
- Survival at day 30 after treatment ([4]; groups of 8, saline group 0%): 75%
- Median survival ([4]; saline group 15 days): > 30 days
